{
  "source": "patent US11028095B2",
  "about": "“Spiro-lactam and bis-spiro-lactam NMDA receptor modulators and uses thereof” (Aptinyx Inc., priority 2016, dated 2021)",
  "key": {"[1]": {"biological_target": "T1, NMDAR2A expressing HEK cell membranes (Homo sapiens, UniProt Q05586+Q12879)", "T1 construct": "expressed in transfected cells; host or cells: HEK cells (membrane extract)", "assay": "NMDAR agonist assay, [3H]MK-801 binding, NMDAR2A", "type": "biochemical", "details": "50 μM glutamate", "procedure": "(§1) (nonequilibrium conditions).\n(§2) The baseline value was determined from the best fit curve of the DPM values modeled using the GraphPad program and the log(agonist) vs. response(three parameters) algorithm was then subtracted from all points in the dataset."}, "Plasma stability (Human)": {"assay": "Plasma stability (Human)", "type": "in vitro ADME", "procedure": "(§3) Plasma stability of disclosed compounds was investigated. The following table indicates the percent of compound remaining after 60 minutes."}, "[2]": {"biological_target": "T2, NMDAR2C expressing HEK cell membranes (Homo sapiens, UniProt Q05586+Q14957)", "T2 construct": "expressed in transfected cells; host or cells: HEK cells (membrane extract)", "assay": "NMDAR agonist assay, [3H]MK-801 binding, NMDAR2C", "type": "biochemical", "details": "50 μM glutamate; [3H]MK-801 binding; read-out: NMDAR2C: log EC50 (converted)", "procedure": "as §1, §2"}, "[3]": {"biological_target": "T3, NMDAR2C expressing HEK cell membranes (Homo sapiens, UniProt Q14957)", "T3 construct": "expressed in transfected cells; host or cells: HEK cells (membrane extract)", "assay": "NMDAR agonist assay, [3H]MK-801 binding, NMDAR2C", "type": "biochemical", "details": "50 μM glutamate; relative to 1 mM glycine", "procedure": "as §1, §2"}, "[4]": {"biological_target": "T4, NMDAR2B expressing HEK cell membranes (Homo sapiens, UniProt Q05586+Q13224)", "T4 construct": "expressed in transfected cells; host or cells: HEK cells (membrane extract)", "T4 sequence (Q13224 27-1484, other chains not shown)": "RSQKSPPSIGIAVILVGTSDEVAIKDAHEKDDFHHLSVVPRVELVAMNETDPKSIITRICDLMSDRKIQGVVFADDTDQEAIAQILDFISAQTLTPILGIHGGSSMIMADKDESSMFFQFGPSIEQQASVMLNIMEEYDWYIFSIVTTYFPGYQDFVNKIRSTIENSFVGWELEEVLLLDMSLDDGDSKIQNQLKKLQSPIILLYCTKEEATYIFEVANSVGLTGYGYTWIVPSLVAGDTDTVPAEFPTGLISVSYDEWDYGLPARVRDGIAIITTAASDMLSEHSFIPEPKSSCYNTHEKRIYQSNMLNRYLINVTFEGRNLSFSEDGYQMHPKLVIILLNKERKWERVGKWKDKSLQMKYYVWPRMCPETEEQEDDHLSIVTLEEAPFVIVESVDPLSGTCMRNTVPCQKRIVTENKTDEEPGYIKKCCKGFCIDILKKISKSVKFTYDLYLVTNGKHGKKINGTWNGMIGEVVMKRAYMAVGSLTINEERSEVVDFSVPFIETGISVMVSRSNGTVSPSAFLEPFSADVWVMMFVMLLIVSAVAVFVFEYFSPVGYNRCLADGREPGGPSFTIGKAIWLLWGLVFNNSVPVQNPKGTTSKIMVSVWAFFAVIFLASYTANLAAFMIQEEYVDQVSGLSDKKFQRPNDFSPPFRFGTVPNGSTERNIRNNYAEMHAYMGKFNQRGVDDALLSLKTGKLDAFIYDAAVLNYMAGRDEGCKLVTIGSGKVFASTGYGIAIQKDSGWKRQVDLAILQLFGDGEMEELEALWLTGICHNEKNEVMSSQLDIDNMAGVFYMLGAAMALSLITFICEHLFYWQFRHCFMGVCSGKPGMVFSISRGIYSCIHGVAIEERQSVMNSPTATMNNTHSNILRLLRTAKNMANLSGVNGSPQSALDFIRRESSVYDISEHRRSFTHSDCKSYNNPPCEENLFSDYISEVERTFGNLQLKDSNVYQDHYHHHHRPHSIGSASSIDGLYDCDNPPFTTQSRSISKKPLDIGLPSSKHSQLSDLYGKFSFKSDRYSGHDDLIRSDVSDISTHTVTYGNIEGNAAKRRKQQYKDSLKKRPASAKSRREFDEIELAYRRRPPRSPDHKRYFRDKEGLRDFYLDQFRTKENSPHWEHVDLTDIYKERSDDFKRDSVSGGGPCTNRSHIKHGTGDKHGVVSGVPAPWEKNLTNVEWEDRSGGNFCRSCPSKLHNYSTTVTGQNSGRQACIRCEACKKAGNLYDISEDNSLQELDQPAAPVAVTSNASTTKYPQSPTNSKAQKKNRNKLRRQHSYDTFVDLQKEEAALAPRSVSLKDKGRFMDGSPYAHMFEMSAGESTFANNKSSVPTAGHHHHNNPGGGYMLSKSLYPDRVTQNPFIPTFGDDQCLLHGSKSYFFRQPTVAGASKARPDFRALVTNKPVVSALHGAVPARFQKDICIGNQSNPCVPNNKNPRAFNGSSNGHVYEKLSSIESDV", "assay": "NMDAR agonist assay, [3H]MK-801 binding, NMDAR2B", "type": "biochemical", "details": "50 μM glutamate; for EC50: [3H]MK-801 binding, read-out: NMDAR2B log EC50 (converted)", "procedure": "as §1, §2"}, "[5]": {"biological_target": "T5, NMDAR2D expressing HEK cell membranes (Homo sapiens, UniProt O15399)", "T5 construct": "expressed in transfected cells; host or cells: HEK cells (membrane extract)", "T5 sequence (O15399 28-1336, other chains not shown)": "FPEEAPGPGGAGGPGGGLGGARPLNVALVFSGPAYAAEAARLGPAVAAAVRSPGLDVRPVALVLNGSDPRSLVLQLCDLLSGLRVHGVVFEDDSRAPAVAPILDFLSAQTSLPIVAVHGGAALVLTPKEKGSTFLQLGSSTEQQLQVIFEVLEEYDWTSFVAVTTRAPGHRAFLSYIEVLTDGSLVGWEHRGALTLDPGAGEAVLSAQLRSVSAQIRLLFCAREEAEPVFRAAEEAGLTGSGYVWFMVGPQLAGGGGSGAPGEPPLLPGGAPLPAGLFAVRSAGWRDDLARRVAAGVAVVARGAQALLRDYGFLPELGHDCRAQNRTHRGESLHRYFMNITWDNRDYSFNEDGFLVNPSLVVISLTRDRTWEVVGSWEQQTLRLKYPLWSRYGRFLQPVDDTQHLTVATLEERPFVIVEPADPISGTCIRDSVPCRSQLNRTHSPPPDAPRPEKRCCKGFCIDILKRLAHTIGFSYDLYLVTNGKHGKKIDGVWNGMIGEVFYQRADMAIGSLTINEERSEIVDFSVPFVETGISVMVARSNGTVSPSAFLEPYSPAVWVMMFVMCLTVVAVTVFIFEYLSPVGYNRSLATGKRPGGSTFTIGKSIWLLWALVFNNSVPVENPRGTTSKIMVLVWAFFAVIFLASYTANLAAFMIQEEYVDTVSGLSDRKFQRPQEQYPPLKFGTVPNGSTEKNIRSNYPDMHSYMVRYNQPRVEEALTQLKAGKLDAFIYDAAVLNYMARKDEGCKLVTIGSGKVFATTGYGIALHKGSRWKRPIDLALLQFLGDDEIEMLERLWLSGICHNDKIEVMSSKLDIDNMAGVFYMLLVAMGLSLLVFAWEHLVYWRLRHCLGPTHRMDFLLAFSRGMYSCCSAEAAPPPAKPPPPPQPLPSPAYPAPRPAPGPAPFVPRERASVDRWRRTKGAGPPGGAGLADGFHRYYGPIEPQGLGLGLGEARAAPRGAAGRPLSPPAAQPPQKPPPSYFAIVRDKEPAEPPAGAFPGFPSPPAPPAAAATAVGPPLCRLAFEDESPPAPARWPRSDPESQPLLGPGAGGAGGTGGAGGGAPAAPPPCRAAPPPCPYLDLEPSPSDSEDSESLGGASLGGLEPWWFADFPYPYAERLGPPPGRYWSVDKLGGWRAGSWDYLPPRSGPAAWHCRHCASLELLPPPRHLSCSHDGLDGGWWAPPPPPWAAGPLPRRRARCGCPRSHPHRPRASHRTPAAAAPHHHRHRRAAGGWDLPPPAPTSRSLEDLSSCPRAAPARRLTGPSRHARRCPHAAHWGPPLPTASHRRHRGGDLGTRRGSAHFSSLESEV", "assay": "NMDAR agonist assay, [3H]MK-801 binding, NMDAR2D", "type": "biochemical", "details": "50 μM glutamate", "procedure": "as §1, §2"}, "[6]": {"biological_target": "T6, NMDAR2D expressing HEK cell membranes (Homo sapiens, UniProt O15399+Q05586)", "T6 construct": "expressed in transfected cells; host or cells: HEK cells (membrane extract)", "T6 sequence (O15399 28-1336, other chains not shown)": "as above", "assay": "NMDAR agonist assay, [3H]MK-801 binding, NMDAR2D", "type": "biochemical", "details": "50 μM glutamate; [3H]MK-801 binding; read-out: NMDAR2D: log EC50 (converted)", "procedure": "as §1, §2"}, "[7]": {"assay": "Microsomal stability (Human)", "type": "in vitro ADME", "details": "human microsomes", "procedure": "(§4) Microsomal stability of disclosed compounds was investigated. The following table indicates the percent of compound remaining after 60 minutes."}, "[8]": {"assay": "Microsomal stability (Rat)", "type": "in vitro ADME", "details": "rat microsomes", "procedure": "as §4"}, "Plasma stability (Rat)": {"assay": "Plasma stability (Rat)", "type": "in vitro ADME", "procedure": "as §3"}, "[9]": {"system": "positive (hedonic) 50-kHz ultrasonic vocalizations (USVs)", "assay": "Positive Emotional Learning (PEL) test", "type": "in vivo", "details": "rat, PO, one hour after administration", "summary_of_the_method": "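Rats received test compound or vehicle (0.5% carboxymethyl cellulose in saline) 1 h before 3 min of experimenter-delivered rough-and-tumble play in alternating 15 s play and no-stimulation blocks. Frequency-modulated 50-kHz USVs during no-stimulation (CS) periods were counted; animals not habituated beforehand.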"}, "[10]": {"biological_target": "T7, NMDAR2A expressing HEK cell membranes (Homo sapiens, UniProt Q12879)", "T7 construct": "expressed in transfected cells; host or cells: HEK cells (membrane extract)", "T7 sequence (Q12879 23-1464, other chains not shown)": "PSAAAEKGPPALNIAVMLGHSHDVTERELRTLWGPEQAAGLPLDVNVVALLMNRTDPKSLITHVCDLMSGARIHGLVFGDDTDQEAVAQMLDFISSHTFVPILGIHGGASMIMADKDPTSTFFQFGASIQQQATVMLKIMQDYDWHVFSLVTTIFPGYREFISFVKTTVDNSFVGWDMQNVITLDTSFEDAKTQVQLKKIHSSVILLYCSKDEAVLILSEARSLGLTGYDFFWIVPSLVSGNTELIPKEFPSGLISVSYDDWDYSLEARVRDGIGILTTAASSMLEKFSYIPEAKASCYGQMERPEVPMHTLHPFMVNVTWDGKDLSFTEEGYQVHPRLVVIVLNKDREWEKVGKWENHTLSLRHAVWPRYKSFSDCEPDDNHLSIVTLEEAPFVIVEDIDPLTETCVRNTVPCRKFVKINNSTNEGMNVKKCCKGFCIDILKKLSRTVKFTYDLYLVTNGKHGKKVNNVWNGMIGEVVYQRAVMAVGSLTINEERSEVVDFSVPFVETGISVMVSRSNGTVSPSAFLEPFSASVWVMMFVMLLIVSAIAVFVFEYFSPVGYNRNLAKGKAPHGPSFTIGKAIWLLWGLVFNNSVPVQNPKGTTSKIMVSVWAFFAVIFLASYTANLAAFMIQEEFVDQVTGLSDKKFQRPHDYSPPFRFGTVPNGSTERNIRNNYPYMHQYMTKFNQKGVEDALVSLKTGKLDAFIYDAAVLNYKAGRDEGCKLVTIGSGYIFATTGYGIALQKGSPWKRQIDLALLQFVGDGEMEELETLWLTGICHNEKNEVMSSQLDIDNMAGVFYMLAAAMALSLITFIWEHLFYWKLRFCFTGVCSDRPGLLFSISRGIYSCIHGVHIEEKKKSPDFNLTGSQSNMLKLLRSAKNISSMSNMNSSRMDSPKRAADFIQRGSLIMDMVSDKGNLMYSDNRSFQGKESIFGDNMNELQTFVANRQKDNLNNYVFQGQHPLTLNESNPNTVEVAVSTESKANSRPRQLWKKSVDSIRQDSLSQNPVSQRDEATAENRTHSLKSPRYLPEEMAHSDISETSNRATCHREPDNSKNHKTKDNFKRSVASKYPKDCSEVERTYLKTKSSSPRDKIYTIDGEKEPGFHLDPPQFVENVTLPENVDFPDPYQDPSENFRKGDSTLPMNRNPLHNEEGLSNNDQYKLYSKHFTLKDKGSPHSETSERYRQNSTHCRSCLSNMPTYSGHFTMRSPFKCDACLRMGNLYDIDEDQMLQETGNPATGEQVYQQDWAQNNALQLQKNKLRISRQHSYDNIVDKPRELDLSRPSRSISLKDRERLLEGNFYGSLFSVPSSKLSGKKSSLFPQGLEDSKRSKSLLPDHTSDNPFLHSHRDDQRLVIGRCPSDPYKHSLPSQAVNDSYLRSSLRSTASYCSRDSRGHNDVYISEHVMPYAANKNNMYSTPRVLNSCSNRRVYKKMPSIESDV", "assay": "NMDAR agonist assay, [3H]MK-801 binding, NMDAR2A", "type": "biochemical", "details": "50 μM glutamate", "procedure": "as §1, §2"}, "[11]": {"biological_target": "T8, NMDAR2B expressing HEK cell membranes (Homo sapiens, UniProt Q13224)", "T8 construct": "expressed in transfected cells; host or cells: HEK cells (membrane extract)", "assay": "NMDAR agonist assay, [3H]MK-801 binding, NMDAR2B", "type": "biochemical", "details": "50 μM glutamate; relative to 1 mM glycine", "procedure": "as §1, §2"}, "[12]": {"assay": "Oral pharmacokinetics (plasma, brain, CSF)", "type": "in vivo", "design": "Cmax: unit: ng/mL", "details": "Sprague Dawley rats, per os, 10 mg/kg", "procedure": "In another experiment, Sprague Dawley rats were dosed per os using a normal saline formulation containing 10 mg/kg of the compounds identified in the table below. Plasma, brain, and CSF samples were analyzed at various time points over a 24 hour period. The table below summarizes the results of the oral pharmacokinetics."}, "IV pharmacokinetics": {"assay": "IV pharmacokinetics", "type": "in vivo", "design": "C0: unit: ng/mL", "details": "Sprague Dawley rats, 2 mg/kg, normal saline", "procedure": "Sprague Dawley rats were dosed intravenously using a normal saline formulation containing 2 mg/kg of the compounds identified in the below table. The table below summarizes the results of the IV pharmacokinetics."}, "[13]": {"details": "[3H]MK-801 binding, read-out: NMDAR2A: log EC50 (converted)"}},
  "data": [
    {"smiles": "O=C1NCC12CCC1(CNC1=O)N2Cc1ccccc1", "note": "(single isomer, unassigned) [AC-2, 5-benzyl-2,5,8-triazadispiro[3.1.36.24]undecane-1,7-dione]", "values": [
      {"measurement": "EC50", "setting": "[1]; [13]", "value": "< 1", "unit": "nM"},
      {"measurement": "Emax", "setting": "[1]; relative to 1 mM glycine, read-out: NMDAR2A: % maximal [3H]MK-801 binding relative to 1 mM glycine", "value": "< 100", "unit": "%"},
      {"measurement": "Plasma (Human): percent of compound remaining after 60 minutes", "setting": "Plasma stability (Human)", "value": 94, "unit": "%"},
      {"measurement": "EC50", "setting": "[2]", "value": "< 1", "unit": "nM"},
      {"measurement": "NMDAR2C A: % maximal [3H]MK-801 binding relative to 1 mM glycine", "setting": "[3]", "value": "+ (<100%=+)"},
      {"measurement": "EC50", "setting": "[4]", "value": "< 1", "unit": "nM"},
      {"measurement": "Emax", "setting": "[4]; relative to 1 mM glycine, read-out: NMDAR2B: % maximal [3H]MK-801 binding relative to 1 mM glycine", "value": "< 100", "unit": "%"},
      {"measurement": "NMDAR2D: % maximal [3H]MK-801 binding relative to 1 mM glycine", "setting": "[5]", "value": "+ (<100%=+)"},
      {"measurement": "EC50", "setting": "[6]", "value": "< 1", "unit": "nM"},
      {"measurement": "Microsomal (Human): percent of compound remaining after 60 minutes", "setting": "[7]", "value": 98, "unit": "%"},
      {"measurement": "Microsomal (Rat): percent of compound remaining after 60 minutes", "setting": "[8]", "value": 100, "unit": "%"},
      {"measurement": "Plasma (Rat): percent of compound remaining after 60 minutes", "setting": "Plasma stability (Rat)", "value": 94, "unit": "%"},
      {"measurement": "Max Effect (mean number of 50 kHz USVs per 15 seconds)", "setting": "[9]; dose 0.001-1 mg/kg", "value": "* (*: 6-10.9)"}
    ]},
    {"smiles": "C[C@@H](O)[C@H](NC(=O)C1CCC2(CNC2=O)N1Cc1ccccc1)C(N)=O", "note": "(single isomer, unassigned) [AN]", "values": [
      {"measurement": "EC50", "setting": "[10]; [13]", "value": "< 1", "unit": "nM"},
      {"measurement": "NMDAR2A: % maximal [3H]MK-801 binding relative to 1 mM glycine", "setting": "[10]; relative to 1 mM glycine", "value": "+ (<100%=+)"},
      {"measurement": "Plasma (Human): percent of compound remaining after 60 minutes", "setting": "Plasma stability (Human)", "value": 88, "unit": "%"},
      {"measurement": "EC50", "setting": "[2]", "value": "< 1", "unit": "nM"},
      {"measurement": "NMDAR2C A: % maximal [3H]MK-801 binding relative to 1 mM glycine", "setting": "[3]", "value": "+ (<100%=+)"},
      {"measurement": "EC50", "setting": "[4]", "value": "< 1", "unit": "nM"},
      {"measurement": "NMDAR2B: % maximal [3H]MK-801 binding relative to 1 mM glycine", "setting": "[11]", "value": "+ (<100%=+)"},
      {"measurement": "% F", "setting": "[12]", "value": 3, "unit": "%"},
      {"measurement": "AUClast", "setting": "[12]", "value": 126.32, "unit": "ng·h/mL"},
      {"measurement": "CSF Cmax", "setting": "[12]; CSF", "value": 0, "unit": "ng/mL"},
      {"measurement": "Brain Cmax", "setting": "[12]; brain", "value": 0, "unit": "ng/mL"},
      {"measurement": "Tmax", "setting": "[12]; normal saline", "value": 0.42, "unit": "h"},
      {"measurement": "Cmax", "setting": "[12]; plasma", "value": 38.9, "unit": "ng/mL"},
      {"measurement": "AUClast", "setting": "IV pharmacokinetics", "value": 727.7, "unit": "ng·h/mL"},
      {"measurement": "C0", "setting": "IV pharmacokinetics", "value": 3209.4, "unit": "ng/mL"},
      {"measurement": "Cl", "setting": "IV pharmacokinetics", "value": 45.98, "unit": "mL/min/kg"},
      {"measurement": "T1/2", "setting": "IV pharmacokinetics", "value": 4.67, "unit": "h"},
      {"measurement": "Vss", "setting": "IV pharmacokinetics", "value": 2.45, "unit": "L/kg"},
      {"measurement": "EC50", "setting": "[5]; [3H]MK-801 binding, read-out: NMDAR2D: log EC50 (converted)", "value": "< 1", "unit": "nM"},
      {"measurement": "NMDAR2D: % maximal [3H]MK-801 binding relative to 1 mM glycine", "setting": "[5]", "value": "+ (<100%=+)"},
      {"measurement": "Microsomal (Human): percent of compound remaining after 60 minutes", "setting": "[7]", "value": 88, "unit": "%"},
      {"measurement": "Microsomal (Rat): percent of compound remaining after 60 minutes", "setting": "[8]", "value": 87, "unit": "%"},
      {"measurement": "Plasma (Rat): percent of compound remaining after 60 minutes", "setting": "Plasma stability (Rat)", "value": 87, "unit": "%"},
      {"measurement": "Max Effect (mean number of 50 kHz USVs per 15 seconds)", "setting": "[9]; dose 0.1 mg/kg", "value": "* (*: 6-10.9)"}
    ]}
  ]
}
